# Test results reported in PubChem BioAssay (NCI).
#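 Where inhibition never reached the appropriate level, the endpoint shown equals the highest concentration tested. Otherwise, values were interpolated linearly from a five-concentration, 48-hour dose response in 96-well plates. Abbreviation: GI50, concentration required for 50% inhibition of growth. Definition used: TGI = concentration required for complete inhibition of growth.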
# What was measured:
# Assay in all cases: inhibition of tumour cell growth, NCI panel, 48 h
# [1] = tested on: 786-0 renal
# [2] = tested on: A498 renal
# [3] = tested on: A549 NSCLC
# [4] = tested on: ACHN renal
# [5] = tested on: BT-549 breast
# [6] = tested on: CAKI-1 renal
# [7] = tested on: CCRF-CEM leukemia
# [8] = tested on: COLO 205 colon
# [9] = tested on: DU-145 prostate
# [10] = tested on: EKVX NSCLC
# [11] = tested on: HCC-2998 colon
# [12] = tested on: HCT-116 colon
# [13] = tested on: HCT-15 colon
# [14] = tested on: HL-60(TB) leukemia
# [15] = tested on: HOP-62 NSCLC
# [16] = tested on: HOP-92 NSCLC
# [17] = tested on: HS 578T breast
# [18] = tested on: HT29 colon
# [19] = tested on: IGROV1 ovarian
# [20] = tested on: K-562 leukemia
# [21] = tested on: KM12 colon
# [22] = tested on: LOX IMVI melanoma
# [23] = tested on: M14 melanoma
# [24] = tested on: MALME-3M melanoma
# [25] = tested on: MCF7 breast
# [26] = tested on: MDA-MB-231 breast
# [27] = tested on: MDA-MB-435
# [28] = tested on: MOLT-4 leukemia
# [29] = tested on: NCI-H23 lung
# [30] = tested on: NCI-H460 lung
# [31] = tested on: NCI-H522 lung
# [32] = tested on: NCI/ADR-RES ovarian
# [33] = tested on: OVCAR-3 ovarian
# [34] = tested on: OVCAR-4 ovarian
# [35] = tested on: OVCAR-5 ovarian
# [36] = tested on: OVCAR-8 ovarian
# [37] = tested on: PC-3 prostate
# [38] = tested on: RPMI-8226 leukemia
# [39] = tested on: RXF 393 renal
# [40] = tested on: SF-268 CNS
# [41] = tested on: SF-295 CNS
# [42] = tested on: SF-539 CNS
# [43] = tested on: SK-MEL-2 melanoma
# [44] = tested on: SK-MEL-28 melanoma
# [45] = tested on: SK-MEL-5 melanoma
# [46] = tested on: SN12C renal
# [47] = tested on: SNB-19 CNS
# [48] = tested on: SNB-75 CNS
# [49] = tested on: SR leukemia
# [50] = tested on: SW-620 colon
# [51] = tested on: T-47D breast
# [52] = tested on: TK-10 renal
# [53] = tested on: U251 CNS
# [54] = tested on: UACC-257 melanoma
# [55] = tested on: UACC-62 melanoma
# [56] = tested on: UO-31 renal
smiles,measurement,setting,value
CC[C@]12C=CCN3CC[C@]4(C(=C(C(=O)OC)C1)Nc1ccccc14)[C@@H]32,GI50,[1],3.66 µM
same,TGI,[1],15.6 µM
same,GI50,[2],7.12 µM
same,TGI,[2],20.2 µM
same,GI50,[3],12.4 µM
same,TGI,[3],31.8 µM
same,GI50,[4],2.07 µM
same,TGI,[4],4.54 µM
same,GI50,[5],8.71 µM
same,TGI,[5],21.6 µM
same,GI50,[6],4.7 µM
same,TGI,[6],17.3 µM
same,GI50,[7],2.73 µM
same,TGI,[7],> 100 µM
same,GI50,[8],5.62 µM
same,TGI,[8],20 µM
same,GI50,[9],3.81 µM
same,TGI,[9],14.5 µM
same,GI50,[10],5.99 µM
same,TGI,[10],22.4 µM
same,GI50,[11],11.4 µM
same,TGI,[11],24.9 µM
same,GI50,[12],3.16 µM
same,TGI,[12],10.9 µM
same,GI50,[13],2.68 µM
same,TGI,[13],10.4 µM
same,GI50,[14],3.18 µM
same,TGI,[14],11.5 µM
same,GI50,[15],9.78 µM
same,TGI,[15],28.4 µM
same,GI50,[16],2.28 µM
same,TGI,[16],9.27 µM
same,GI50,[17],2.99 µM
same,TGI,[17],17.2 µM
same,GI50,[18],3.41 µM
same,TGI,[18],12.8 µM
same,GI50,[19],5.8 µM
same,TGI,[19],20.6 µM
same,GI50,[20],3.08 µM
same,TGI,[20],15.1 µM
same,GI50,[21],3.65 µM
same,TGI,[21],14.5 µM
same,GI50,[22],1.94 µM
same,TGI,[22],4.13 µM
same,GI50,[23],2.97 µM
same,TGI,[23],12.5 µM
same,GI50,[24],3.43 µM
same,TGI,[24],15.2 µM
same,GI50,[25],3.33 µM
same,TGI,[25],13.1 µM
same,GI50,[26],3.19 µM
same,TGI,[26],13.3 µM
same,GI50,[27],2.06 µM
same,TGI,[27],5.63 µM
same,GI50,[28],3.16 µM
same,TGI,[28],14.7 µM
same,GI50,[29],4.37 µM
same,TGI,[29],17.7 µM
same,GI50,[30],4.11 µM
same,TGI,[30],16.3 µM
same,GI50,[31],3.24 µM
same,TGI,[31],14.1 µM
same,GI50,[32],6.39 µM
same,TGI,[32],58.1 µM
same,GI50,[33],2.45 µM
same,TGI,[33],7.51 µM
same,GI50,[34],4.4 µM
same,TGI,[34],17.5 µM
same,GI50,[35],6.55 µM
same,TGI,[35],21.2 µM
same,GI50,[36],3.75 µM
same,TGI,[36],> 100 µM
same,GI50,[37],5.36 µM
same,TGI,[37],22.8 µM
same,GI50,[38],3.17 µM
same,TGI,[38],17.8 µM
same,GI50,[39],2.51 µM
same,TGI,[39],7.24 µM
same,GI50,[40],4.6 µM
same,TGI,[40],19.3 µM
same,GI50,[41],13 µM
same,TGI,[41],26.6 µM
same,GI50,[42],3.09 µM
same,TGI,[42],10.1 µM
same,GI50,[43],4.45 µM
same,TGI,[43],17.7 µM
same,GI50,[44],4.49 µM
same,TGI,[44],17.9 µM
same,GI50,[45],4.87 µM
same,TGI,[45],16.8 µM
same,GI50,[46],3.62 µM
same,TGI,[46],18.2 µM
same,GI50,[47],10.7 µM
same,TGI,[47],23.3 µM
same,GI50,[48],2.15 µM
same,TGI,[48],7.93 µM
same,GI50,[49],2.55 µM
same,TGI,[49],30.7 µM
same,GI50,[50],3.18 µM
same,TGI,[50],12.3 µM
same,GI50,[51],2.82 µM
same,TGI,[51],15.9 µM
same,GI50,[52],4.86 µM
same,TGI,[52],17.6 µM
same,GI50,[53],3.64 µM
same,TGI,[53],16.4 µM
same,GI50,[54],5.06 µM
same,TGI,[54],26.5 µM
same,GI50,[55],2.89 µM
same,TGI,[55],12 µM
same,GI50,[56],4.11 µM
same,TGI,[56],16.5 µM
